Data: patent publication US11369631B1, “Oral gelling liquid formulations” (UMM Rainforest Innovations, priority 2019, dated 2022)

Assay: Rheological analysis of thermal gelation temperature (oscillation temperature sweep, abrupt increase in G′)
Format: physicochemical
Settings: for αG, rate of change in gelation temperature as a function of additive composition: 2% w/v HPMC 2910, linear fit TGel=T0−αGx (FIG. 5)
From the text: Rheology is the most direct and reliable way to determine the sol-gel transition temperature, as well as characterize the rheological properties of both solution and subsequent gel. As a result, a rheometer was chosen to determine the sol-gel transition temperature of the HPMC solutions disclosed. Rheological properties such as dynamic moduli G′, G″, and complex viscosity η* change when the temperature is in the vicinity of the sol-gel transition. The rheometer is able to measure these properties during heating.
During the routine measurements in these studies, the following procedure was observed: (i) Each HPMC solution was placed on to the bottom Peltier plate of the Discovery Hybrid HR-2 rheometer (TA Instruments, Newcastle, Del., USA) equipped with a Peltier […] temperature system and a 50 mm parallel plate; (ii) Oscillation temperature sweep was performed to determine the effect of temperatures on complex viscosity (η*), storage modulus (G′), and loss modulus (G″) at angular frequency of 1 rad/s and stress applied was 0.4 Pa; (iii) In this study samples were heated in the range of 10-80° C. at a rate of 1° C./min. A thin layer of low-viscosity silicon oil was placed around the sample to prevent dehydration during measurements; (iv) All measurements were repeated in triplicate. The abrupt increase in G′, which is accompanied by a sharp increase in viscosity was considered to be a suitable way to define a thermal gelation temperature.
Statistical differences in the thermal gelation temperature of different hypromellose formulations containing different halide salt concentrations were determined using a one-way ANOVA test using Microsoft Excel Analysis Toolpak (Microsoft Inc., Redmond, Wash.). P values of <0.05 were considered statistically significant.

Row | SMILES | factor by which αG-NaF is greater than αG-NaCl (2% w/v HPMC 2910) [times] | αG, rate of change in gelation temperature as a function of additive composition
1 | [F-].[Na+] [NaF, Sodium fluoride] | ~3.6 | ~14.5
2 | [Cl-].[Na+] [NaCl, sodium chloride] |  | ~4.0
